The results in this text go back to US7419984B2, “Pyrimidines and uses thereof” (Cell Therapeutics, Inc., priority 2002, dated 2008).

The target in the experiment is T1, human LPAAT-β (Homo sapiens, UniProt O15120).
T1 construct: the full-length human LPAAT-β cDNA was amplified by PCR; poly-histidine tag (N); made in house; host or cells: Sf9 insect cells (baculovirus, pFastBac HTc); the membrane fraction was used as the enzyme
T1 sequence (O15120 24-278): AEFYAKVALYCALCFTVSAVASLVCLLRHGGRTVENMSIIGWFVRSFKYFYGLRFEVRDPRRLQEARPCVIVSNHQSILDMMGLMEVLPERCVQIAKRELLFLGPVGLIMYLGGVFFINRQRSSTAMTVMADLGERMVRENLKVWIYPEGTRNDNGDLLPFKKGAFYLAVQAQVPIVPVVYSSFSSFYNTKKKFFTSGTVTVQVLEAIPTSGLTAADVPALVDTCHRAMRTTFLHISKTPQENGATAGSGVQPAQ
The experiment in a line: LPAAT-β cell-free assay. The format is biochemical. Particulars: Sf9 cell membrane overexpressing recombinant LPAAT-β. The source says:
For the construction of Baculovirus expression vectors, the full-length human LPAAT-β cDNA was amplified by PCR from the DNA template pCE9.LPAAT-β (West et al., DNA Cell Bid. 16.691-701 (1997)) using the primers 5′-[…] […] […] […]-3′ (olpb1F; SEQ ID NO:1) and 5′-[…] […] […]-3′ (olpb1R; SEQ ID NO:2). The ˜870 bp fragment generated was reamplified by PCR using the primers 5′ […] […] […] […] ATC-3′ (olpb2F; SEQ ID NO:3) and 5′-[…] […] […]-3′ (olpb1R; SEQ ID NO:2). The ˜890 bp fragment generated was then cleaved with Sal I and Xba I for insertion into pFastBac™ HTc vector (Life Technologies, Gaithersberg, M.d.) between the Sal I and Xba I sites for the generation of the plasmid pFB.LPAAT-β. This plasmid was then transformed into E. coli DH10Bac™ (Life Technologies, Gaithersberg, M.d.) for the generation of recombinant Bacmid DNA for transfection in HighFive (Invitrogen, San Diego, Calif.) or SF9 insect cells for the production of recombinant Baculovirus stocks using the protocol described in the Bac-to-Bac® Baculovirus Expression System (Life Technologies, Gaithersberg, M.d.), a eukaryotic expression system for generating recombinant baculovirus through site-specific transposition in E. coli. Viral stocks harvested from the transfected cells can then be used to infect fresh insect cells for the subsequence expression of LPAAT-β fusion protein with a poly-histidine tag and a myc-epitope near its N-terminus. The membrane fraction from these Sf9 cells would be the source of LPAAT enzyme.
For the preparation of membranes from Sf9 Cells, all steps are performed on ice or at 4° C. Sf9 cell pellets (˜10^8 cells) were thawed and resuspended in 1-2 ml of buffer A (20 mM Hepes, pH 7.5, 1 mM DTT, 1 mM EDTA, 20% w/v glycerol, 1 mM Benzamidine, 1 μg/ml soybean trypsin inhibitor (SBTI), 1 μug/ml pepstatin A) w/o DTT but with 1 mM Pefabloc. The cells were lysed by sonication using a Branson Sonifier at output=2, duty cycle=2, 10 pulses each at 10 s. with the tip of small sonicator probe submerged but not touching the walls. DTT was then added to 1 mM from a 1 M stock. The samples were centrifuged at 1500 rpm for 5 min. The low speed supernatant was saved and centrifuged (TLA 100.3 rotor, polycarbonate tubes, 2 ml/tube or 1.5 ml/tube minimum) at 100000×g for 1 hr. The high speed pellet was resuspend in Buffer A with a probe sonicator (10 pulses @ output #2 and duty cycle 20%) as a source of LPAAT enzyme.
LPAAT-β catalyzes the transfer of an acyl group from a donor such as acyl-CoA to LPA. The transfer of the acyl group from acyl-CoA to LPA leads to the release of free CoA, which can be reacted with the thiol reagent, 5,5′-dithiobis(2-nitrobenzoic acid) (DTNB). The reaction between DTNB and the free sulfhydryl group from CoA generates a yellow-colored product, 3-carboxylato-4-nitrothiophenolate (CNP), that absorbs at 413 nm. LPAAT-β derived from Sf9 cell membrane overexpressing LPAAT-β were resuspended in HEPES saline buffer (20 mM HEPES pH 7.5, 150 mM NaCl), 1 mg/ml BSA and 72 μl aliquots were distributed into 96-well microtiter plates. 8 μl of compound of interest at 200 μM dissolved in 100% DMSO was added into each well. […] of 1 mM 18:1-CoA and 1 mM sn-1-18:1 lysoPA was then added to each well to initiate the reaction and allowed to run at room temperature for 25 min. 100 μl of 1 mM DTNB in 100% ethanol was then added to each well to quench the reaction and for color development. The absorbance at 405 nm, measured using a spectrophotometer plate reader, is proportional to the activity of LPAAT-2 in the sample. This colorimetric assay was used for the high throughput screening of LPAAT inhibitors.
The radiometric assay was carried out in Sf9 cell membrane overexpressing LPAAT-β resuspended in HEPES-saline buffer, pH 7.5, 1 mg/ml BSA, 1 mM EDTA and 200 μM [^14C]18:1-CoA and 200 μM sn-1-18:1 lysoPA.

SMILES strings stand for the structures. pIC50: −log10 of the molar value.

Regarding `COc1ccc(Cl)cc1-c1cc(Nc2ccc3cn[nH]c3c2)nc(N)n1` [Example 3, 6-(5-Chloro-2-methoxy-phenyl)-N*4*-(1H-indazol-6-yl)-pyrimidine-2,4-diamine], the pIC50 was 7.10.

Take `CCOc1ccc(Cl)cc1-c1cc(Nc2ccc(CCCCO)cc2)nc(N)n1` [Example 93, 4-{4-[2-Amino-6-(5-chloro-2-ethoxy-phenyl)-pyrimidin4-ylamino]-phenyl}-butan-1-ol]: the pIC50 is 6.92.

With `CC(C)Oc1ccc(Br)cc1-c1cc(Nc2ccc(Cl)cc2)nc(N)n1` [Example 136, 6-(5-Bromo-2-isopropoxy-phenyl)-N*4*-(4-chloro-phenyl)-pyrimidine-2,4-diamine], the pIC50 was 6.77.

Regarding `CCOc1ccc(Br)cc1-c1cc(Nc2ccc(F)cc2)ncn1` [Example 192, [6-(5-Bromo-2-ethoxy-phenyl)-pyrimidin4-yl]-(4-fluoro-phenyl)-amine], the pIC50 was 7.22.

Regarding `C=CCOc1ccc(Cl)cc1-c1cc(Nc2ccc(Cl)cc2)nc(N)n1` [Example 174, 6-(2-Allyloxy-5-chloro-phenyl)-N*4*-(4-chloro-phenyl)-pyrimidine-2,4-diamine], the pIC50 is 8.05.

For `CC(=O)c1ccc(Nc2cc(-c3cccc(Cl)c3)nc(N)n2)cc1` [Example 139, 1-{4-[2-Amino-6-(3-chloro-phenyl)-pyrimidin-4-ylamino]-phenyl}-ethanone], the pIC50 was 6.47.

As to `CCOc1ccc(Cl)cc1-c1cc(Nc2ccc(CO)cc2)nc(N)n1` [Example 44, {4-[2-Amino-6-(5-chloro-2-ethoxy-phenyl)-pyrimidin-4-ylamino]-phenyl}-methanol], the pIC50 was 7.12.

For `CCOc1ccc(Cl)cc1-c1cc(Nc2ccc([N+](=O)[O-])cc2)nc(N)n1` [Example 46, 6-(5-Chloro-2-ethoxy-phenyl)-N*4*-(4-nitro-phenyl)-pyrimidine-2,4-diamine], the pIC50 was 8.00.

As for `Nc1nc(Nc2ccc(Cl)cc2)cc(-c2cccc(Cl)c2Cl)n1` [Example 118, 6-(2,3-Dichloro-phenyl)-N*4*-(4-chloro-phenyl)-pyrimidine-2,4-diamine], the pIC50 was 6.15.

Take `Nc1nc(Nc2ccc(O)cc2)cc(-c2cc(Cl)ccc2Cl)n1` [Example 17, 4-[2-Amino-6-(2,5-dichloro-phenyl)-pyrimidin-4-ylamino]-phenol]: the pIC50 was 6.62.

Consider `Cc1ccc(Cl)cc1-c1cc(Nc2ccc(Br)cc2)ncn1` [Example 172, (4-Bromo-phenyl)-[6-(5-chloro-2-methyl-phenyl)-pyrimidin-4-yl]-amine], for which the pIC50 is 7.35.

In the case of `COc1ccc(Cl)cc1-c1cc(N)nc(Nc2ccc(Cl)cc2)n1` [Example 34, 6-(5-Chloro-2-methoxy-phenyl)-N*2*-(4-chloro-phenyl)-pyrimidine-2,4-diamine], the pIC50 is 5.70.

For the molecule `COc1ccc(Nc2cc(-c3cc(Cl)ccc3C)nc(N)n2)cc1` [Example 28, 6-(5-Chloro-2-methyl-phenyl)-N*4*-(4-methoxy-phenyl)-pyrimidine-2,4-diamine], the pIC50 is 6.70.

`Cc1ccc(Cl)cc1-c1cc(Nc2ccc(Cl)cc2)nc(N)n1` [Example 27, 6-(5-Chloro-2-methyl-phenyl)-N*4*-(4-chloro-phenyl)-pyrimidine-2,4-diamine]: the pIC50 is 7.55.

Regarding `Nc1nc(Nc2ccc(Br)cc2)cc(-c2cc(Cl)ccc2Cl)n1` [Example 14, N*4*-(4-Bromo-phenyl)-6-(2,5-dichloro-phenyl)-pyrimidine-2,4-diamine], the pIC50 was 7.59.

Regarding `CNC(=O)c1cc(Nc2cc(-c3cc(Br)ccc3OC)nc(N)n2)ccc1Cl` [Example 184, 5-[2-Amino-6-(5-bromo-2-methoxy-phenyl)-pyrimidin4-ylamino]-2-chloro-N-methyl-benzamide], the pIC50 is 6.70.

`COc1ccc(Cl)cc1-c1cc(Nc2ccc(Br)cc2)nc(N)n1` [Example 5, N*4*-(4-Bromo-phenyl)-6-(5-chloro-2-methoxy-phenyl)-pyrimidine-2,4-diamine]: the pIC50 was 7.54.

`Nc1nc(Nc2ccc(C(F)(F)F)cc2)cc(-c2cc(Br)ccc2Cl)n1` [Example 189, 6-(5-Bromo-2-chloro-phenyl)-N*4*-(4-trifluoromethyl-phenyl)-pyrimidine-2,4-diamine]: the pIC50 was 7.10.

Turning to `COc1ccc(Cl)cc1-c1cc(Nc2ccc3c(c2)OCO3)nc(N)n1` [Example 13, N*4*-Benzo [1,3]dioxol-5-yl-6-(5-chloro-2-methoxy-phenyl)-pyrimidine-2,4-diamine], the pIC50 was 7.00.

Turning to `CCOc1ccc(Cl)cc1-c1cc(Nc2ccc(F)cc2)nc(N)n1` [Example 94, 6-(5-Chloro-2-ethoxy-phenyl)-N*4*-(4-fluoro-phenyl)-pyrimidine-2,4-diamine], the pIC50 is 7.49.

As to `Nc1nc(Nc2ccc(Cl)cc2)cc(-c2cc(Cl)cc(Cl)c2Cl)n1` [Example 98, N*4*-(4-Chloro-phenyl)-6-(2,3,5-trichloro-phenyl)-pyrimidine-2,4-diamine], the pIC50 is 7.04.

For the molecule `CCOc1ccc(Br)cc1-c1cc(Nc2ccc(C(F)(F)F)cc2)nc(N)n1` [Example 60, 6-(5-Bromo-2-ethoxy-phenyl)-N*4*-(4-trifuoromethyl-phenyl)-pyrimidin-2,4-diamine], the pIC50 is 7.22.

On to `Nc1nc(Nc2ccc3c(c2)OCO3)cc(-c2cc(Cl)ccc2Cl)n1` [Example 23, N*4*-Benzo[1,3]dioxol-5-yl-6-(2,5-dichloro-phenyl)-pyrimidine-2,4-diamine], for which the pIC50 was 7.02.

Turning to `CCOc1ccc(Cl)cc1-c1cc(Nc2ccc(C#N)cc2)nc(N)n1` [Example 57, 4-[2-Amino-6-(5-chloro-2-ethoxy-phenyl)-pyrimidin4-ylamino]-benzonitrile], the pIC50 was 7.66.

On to `CCOc1ccc(Cl)cc1-c1cc(Nc2ccc(CCCC(=O)O)cc2)nc(N)n1` [Example 95, 4-{4-[2-Amino-6-(5-chloro-2-ethoxy-phenyl)-pyrimidin4-ylamino]-phenyl}-butyric acid], for which the pIC50 was 6.51.

On to `CCOc1ccc(Br)cc1-c1cc(Nc2ccc(C(C)=O)cc2)nc(N)n1` [Example 127, 1-{4-[2-amino-6-(5-bromo-2-ethoxyphenyl)pyrimidin-4-ylamino]phenyl}ethanone], for which the pIC50 is 7.47.

As to `COc1ccc(Cl)cc1-c1cc(Nc2ccc(O)cc2)nc(N)n1` [Example 6, 4-[2-Amino-6-(5-chloro-2-methoxy-phenyl)-pyrimidin-4-ylamino]-phenol], the pIC50 is 6.35.

As to `COc1ccc(Cl)cc1-c1cc(Nc2ccc(CO)cc2)nc(N)n1` [Example 10, {4-[2-Amino-6-(5-chloro-2-methoxy-phenyl)-pyrimidin4-ylamino]-phenyl}-methanol], the pIC50 was 6.92.
